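Briefly, cells in 96-well plates were exposed to five compound concentrations for 48 h, and endpoints were estimated by linear interpolation. Definition used: TGI = concentration required for complete inhibition of growth.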
Key:
Assay in all cases: NCI tumour cell line growth inhibition, 48 h
[1] = tested on: SF-295 CNS
[2] = tested on: LOX IMVI melanoma
[3] = tested on: NCI-H226 lung
[4] = tested on: MDA-MB-231 breast
[5] = tested on: HS 578T breast
[6] = tested on: T-47D breast
[7] = tested on: K-562 leukemia
[8] = tested on: OVCAR-3 ovarian
[9] = tested on: HCT-15 colon
[10] = tested on: RPMI-8226 leukemia

| Compound | TGI [1] [µM] | TGI [2] [µM] | TGI [3] [µM] | TGI [4] [µM] | TGI [5] [µM] | TGI [6] [µM] | TGI [7] [µM] | TGI [8] [µM] | TGI [9] [µM] | TGI [10] [µM] |
| --- | --- | --- | --- | --- | --- | --- | --- | --- | --- | --- |
| COc1cc2c(cc1OC)C1c3ccccc3CCN1CC2 (stereo not drawn) | > 100 | > 100 | 96.1 | > 100 | > 100 | > 100 | > 100 | > 100 | > 100 |  |
| CC(C)(C)C1=Cc2cc3cc(C(C)(C)C)[nH]c(=O)c3cc2S(=O)(=O)N1 | 94.4 |  | 47.7 |  |  |  | > 100 | 59.3 |  | 98.5 |
| COc1ccc(Nc2nc3ccc(C(F)(F)F)cc3nc2C(=O)O)cc1OC | 77.6 | > 100 | > 100 | > 100 | 96.6 |  | > 100 | 40.8 | > 100 |  |
| CCC(C(=O)O)c1ccc(OCc2ccccc2)cc1 (stereo not drawn) | > 100 | > 100 | > 100 |  |  |  | > 100 | > 100 |  | > 100 |
| C/C(=N/NC(N)=S)c1ccc2ccccc2c1 | > 100 | > 100 | > 100 |  |  |  |  | > 100 | > 100 |  |
| CCC12C[N+]3([O-])CCc4c([nH]c5ccccc45)C(C(=O)OC)(c4cc5c(cc4OC)N(C)C4C(O)(C(=O)OC)C(OC(C)=O)C6(CC)C=CCN7CCC54C76)CC(C3)C1O2 (stereo not drawn) | 1.86 | 51.7 |  |  |  |  | 6.28 | 1.3 | 24.8 | 1.43 |
| Nc1c2ccccc2nc2c1ccc1ncccc12 | > 100 | 53.5 | 43.9 | 96.1 |  | > 100 | 88.6 | > 100 | > 100 |  |
| CC(C)(C)N=c1n(C(C)(C)C)oc(=O)n1C(C)(C)C | > 100 | > 100 | > 100 | > 100 | > 100 |  | > 100 | > 100 | > 100 |  |
| CCOC(=O)C1=C(C(C)=O)CSC(c2ccccc2)=N1 | > 100 | > 100 | > 100 |  |  |  | > 100 | > 100 | > 100 | > 100 |
| CCC[C@H]1C(=O)N=C(N)N1C(=O)OCc1ccccc1 | > 100 | > 100 | > 100 | > 100 | > 100 |  | > 100 | > 100 | > 100 | > 100 |
| N#Cc1c(-c2ccccc2)/c(=C\Nc2ccc(Cl)cc2)c(=O)n2c1nc1ccccc12 | > 100 | > 100 | > 100 | > 100 |  | > 100 |  | > 100 | > 100 | 45.9 |
| COC(=O)c1c(C)cccc1/C=C1/Cc2c(C)cccc2C1=O | > 100 | > 100 | > 100 | > 100 | > 100 | > 100 |  | > 100 | > 100 | 8.51 |
| COc1cc(/C=C/C(=O)O)ccc1C(=O)O/C=C/c1ccccc1 | > 100 | > 100 | > 100 |  |  |  | > 100 | > 100 | > 100 | > 100 |
| COc1ccc(/C(=N/O)c2ccccc2-c2nc3ccccc3c(=O)n2-c2ccc(S(=O)(=O)Nc3ncccn3)cc2)cc1C | 27.9 |  |  | > 31.6 | > 100 | 25.2 | 21.6 | 25.9 | 28.6 | 42.9 |
